In publication PMC6754450, “Antimicrobial activity and mechanism of action of a novel peptide present in the ecdysis process of centipede Scolopendra subspinipes subspinipes” (Scientific Reports, 2019):
Converted amounts (≈) assume the structure as drawn. Where a SMILES comes first, the peptide text is derived from it.

Key:
[1] = test system: All of the microorganisms tested; assay: Antimicrobial activity, summary over all microorganisms tested; assay type: cell-based; conditions: summary of Table 1; 17 bacterial, yeast and fungal strains
Description: (§1) During the purification procedure, the antimicrobial activities of the fractions were monitored by liquid growth inhibition assays against E. coli SBS 363, M. luteus A270, A. niger, and C. albicans MDM8. Bacteria were cultured in poor nutrient broth (PB) (1.0 g peptone in 100 mL of water containing 86 mM NaCl at pH 7.4; 217 mOsm), and fungi and yeasts were cultured in poor potato dextrose broth (1/2- strength PDB) (1.2 g potato dextrose in 100 mL of water at pH 5.0; 79 mOsm). Determination of antimicrobial activity was performed as previously described[12]–[14].
(§2) The MIC is defined as the minimum concentration of peptide required to achieve 100% growth inhibition. […] The two peptides were dissolved in ultrapure water at a final concentration of 1 mM. […] MBCs were determined after 96 h of incubation at 30 °C. The lowest concentration with no visible growth was defined as the MBC, indicating 99.5% killing of the original inoculum. Microbial growth was measured by monitoring the increase in optical density at 595 nm using a Victor 3TM 1420 multilabel counter (PerkinElmer, Waltham, MA, USA). Assays were performed in triplicate.

[2] = 25% fresh human blood plasma in water, 37 °C; 20 µL of 10 mg/mL peptide stock in 1 mL; TFA quench; LC/ESI-MS peak area; triplicate; followed over 360 min
Description: An aliquot (20 μL) of the aqueous peptide stock solution (10 mg/mL) was added to 1 mL of 25% solution of fresh human blood plasma in water at 37 °C. Aliquots (50 μL) were withdrawn and added to 5 μL of pure trifluoroacetic acid (TFA) at different time intervals, then incubated at 5 °C for 15 min. Following incubation, the resulting mixtures were centrifuged at 3000 g for 5 min. The supernatants (20 μL) were injected into an online LC/ESI-MS equipment. Elution was performed using an ACN/TFA linear gradient of 3% to 57% ACN at a flow rate of 0.3 mL/min for 30 min. The remaining peptide was monitored by the corresponding peak area in the chromatogram. Assays were conducted in triplicate.
The human blood sample was obtained from a healthy adult donor at Vital Brazil Hospital in accordance with Ethical Guidelines of the Butantan Institute (protocol CEUAIB No. I-1043/13). Written informed consent was obtained from the donor.

[3] = test system: Alcaligenes faecalis ATCC 8750; assay: Liquid growth inhibition assay (MIC/MBC); assay type: cell-based; conditions: PB medium, highest concentration tested 100 µM, triplicate
Description: as §1, §2

[4] = test system: Aspergillus niger; assay: Liquid growth inhibition assay (MIC/MBC); assay type: cell-based; conditions: 1/2-strength PDB, highest concentration tested 100 µM, triplicate
Description: as §1, §2

[5] = test system: Bacillus megaterium ATCC 10778; assay: Liquid growth inhibition assay (MIC/MBC); assay type: cell-based; conditions: PB medium, highest concentration tested 100 µM, triplicate
Description: as §1, §2

[6] = test system: Bacillus subtilis ATCC 6633; assay: Liquid growth inhibition assay (MIC/MBC); assay type: cell-based; conditions: PB medium, highest concentration tested 100 µM, triplicate
Description: as §1, §2

[7] = test system: Beauveria bassiana; assay: Liquid growth inhibition assay (MIC/MBC); assay type: cell-based; conditions: 1/2-strength PDB, highest concentration tested 100 µM, triplicate
Description: as §1, §2

[8] = test system: Candida albicans MDM8; assay: Liquid growth inhibition assay (MIC/MBC); assay type: cell-based; conditions: 1/2-strength PDB, highest concentration tested 100 µM, triplicate
Description: as §1, §2

[9] = test system: Candida tropicalis IOC 4560; assay: Liquid growth inhibition assay (MIC/MBC); assay type: cell-based; conditions: 1/2-strength PDB, highest concentration tested 100 µM, triplicate
Description: as §1, §2

[10] = test system: Enterobacter cloacae β-12; assay: Liquid growth inhibition assay (MIC/MBC); assay type: cell-based; conditions: PB medium, highest concentration tested 100 µM, triplicate
Description: as §1, §2

[11] = test system: Escherichia coli D31; assay: Liquid growth inhibition assay (MIC/MBC); assay type: cell-based; conditions: PB medium, highest concentration tested 100 µM, triplicate
Description: as §1, §2

[12] = test system: Escherichia coli SBS 363; assay: Liquid growth inhibition assay (MIC/MBC); assay type: cell-based; conditions: PB medium, highest concentration tested 100 µM, triplicate
Description: as §1, §2

[13] = test system: Micrococcus luteus A270; assay: Liquid growth inhibition assay (MIC/MBC); assay type: cell-based; conditions: PB medium, highest concentration tested 100 µM, triplicate
Description: as §1, §2

[14] = test system: Pseudomonas aeruginosa ATCC 27853; assay: Liquid growth inhibition assay (MIC/MBC); assay type: cell-based; conditions: PB medium, highest concentration tested 100 µM, triplicate
Description: as §1, §2

[15] = test system: Saccharomyces cerevisiae PM340; assay: Liquid growth inhibition assay (MIC/MBC); assay type: cell-based; conditions: 1/2-strength PDB, highest concentration tested 100 µM, triplicate
Description: as §1, §2

[16] = test system: Salmonella Arizonae ATCC 13314; assay: Liquid growth inhibition assay (MIC/MBC); assay type: cell-based; conditions: PB medium, highest concentration tested 100 µM, triplicate
Description: as §1, §2

[17] = test system: Salmonella Typhimurinum ATCC 14028; assay: Liquid growth inhibition assay (MIC/MBC); assay type: cell-based; conditions: PB medium, highest concentration tested 100 µM, triplicate
Description: as §1, §2

[18] = test system: Serratia marcescens ATCC 4112; assay: Liquid growth inhibition assay (MIC/MBC); assay type: cell-based; conditions: PB medium, highest concentration tested 100 µM, triplicate
Description: as §1, §2

[19] = test system: Staphylococcus aureus ATCC 29213; assay: Liquid growth inhibition assay (MIC/MBC); assay type: cell-based; conditions: PB medium, highest concentration tested 100 µM, triplicate
Description: as §1, §2

[20] = test system: human erythrocytes; assay: Haemolytic activity; assay type: cell-based; conditions: 3% erythrocytes in PBS, 3 h, 37 °C; for Haemolysis (%): A414, relative to 0.1% Triton X-100, triplicate
Description: Absorbance in the supernatant was measured at 414 nm. The haemolysis percentage was expressed in relation to a 100% lysis control (erythrocytes incubated with 0.1% Triton X-100); PBS was used as a negative control. Assays were conducted in triplicate.
Red blood cells were obtained under the same conditions and from the same donor mentioned in the plasma stability assay section.

[21] = 100% growth inhibition, two-fold serial dilution, 30 °C, 18 h
[22] = no visible growth after 96 h at 30 °C

## CC(=O)N[C@H](C(=O)N[C@@H](C)C(=O)N[C@@H](CCC(=O)O)C(=O)N[C@@H](C)C(=O)N[C@@H](CCCNC(=N)N)C(=O)N[C@@H](CCC(N)=O)C(=O)NCC(=O)N[C@@H](CO)C(=O)N[C@@H](Cc1ccccc1)C(=O)N[C@@H](CO)C(=O)N[C@@H](Cc1ccc(O)cc1)C(N)=O)C(C)C [Pinipesin AC] (Ac-VAEARQGSFSY-NH2)
[1]
  Concentrations at which active against all microorganisms tested: did not show antimicrobial activity
[2]
  Time within which peptide is almost totally digested in human plasma: ≤ 60 min

## CC(C)[C@H](N)C(=O)N[C@@H](C)C(=O)N[C@@H](CCC(=O)O)C(=O)N[C@@H](C)C(=O)N[C@@H](CCCNC(=N)N)C(=O)N[C@@H](CCC(N)=O)C(=O)NCC(=O)N[C@@H](CO)C(=O)N[C@@H](Cc1ccccc1)C(=O)N[C@@H](CO)C(=O)N[C@@H](Cc1ccc(O)cc1)C(=O)O [Pinipesin] (H-VAEARQGSFSY-OH)
[3]; [21]
  MIC: 15.16 µg/mL (≈ 12.5 µM)
[3]; [22]
  MBC: 15.16 µg/mL (≈ 12.5 µM)
[4]; [21]
  MIC: 30.33 µg/mL (≈ 25 µM)
[4]; [22]
  MBC: 30.33 µg/mL (≈ 25 µM)
[5]; [21]
  MIC: 15.16 µg/mL (≈ 12.5 µM)
[5]; [22]
  MBC: 15.16 µg/mL (≈ 12.5 µM)
[6]; [21]
  MIC: 30.33 µg/mL (≈ 25 µM)
[6]; [22]
  MBC: 30.33 µg/mL (≈ 25 µM)
[7]; [21]
  MIC: 30.33 µg/mL (≈ 25 µM)
[7]; [22]
  MBC: 30.33 µg/mL (≈ 25 µM)
[8]; [21]
  MIC: 30.33 µg/mL (≈ 25 µM)
[8]; [22]
  MBC: 30.33 µg/mL (≈ 25 µM)
[9]; [21]
  MIC: 30.33 µg/mL (≈ 25 µM)
[9]; [22]
  MBC: 30.33 µg/mL (≈ 25 µM)
[10]; [21]
  MIC: 30.33 µg/mL (≈ 25 µM)
[10]; [22]
  MBC: 30.33 µg/mL (≈ 25 µM)
[11]; [21]
  MIC: 15.16 µg/mL (≈ 12.5 µM)
[11]; [22]
  MBC: 15.16 µg/mL (≈ 12.5 µM)
[12]; [21]
  MIC: 30.33 µg/mL (≈ 25 µM)
[12]; [22]
  MBC: 30.33 µg/mL (≈ 25 µM)
[13]; [21]
  MIC: 7.58 µg/mL (≈ 6.24 µM)
[13]; [22]
  MBC: 15.16 µg/mL (≈ 12.5 µM)
[14]; [21]
  MIC: 15.16 µg/mL (≈ 12.5 µM)
[14]; [22]
  MBC: 15.16 µg/mL (≈ 12.5 µM)
[15]; [21]
  MIC: 30.33 µg/mL (≈ 25 µM)
[15]; [22]
  MBC: 30.33 µg/mL (≈ 25 µM)
[16]; [21]
  MIC: 30.33 µg/mL (≈ 25 µM)
[16]; [22]
  MBC: 30.33 µg/mL (≈ 25 µM)
[17]; [21]
  MIC: 15.16 µg/mL (≈ 12.5 µM)
[17]; [22]
  MBC: 15.16 µg/mL (≈ 12.5 µM)
[18]; [21]
  MIC: 30.33 µg/mL (≈ 25 µM)
[18]; [22]
  MBC: 30.33 µg/mL (≈ 25 µM)
[19]; [21]
  MIC: 7.58 µg/mL (≈ 6.24 µM)
[19]; [22]
  MBC: 7.58 µg/mL (≈ 6.24 µM)
[2]
  Time within which peptide is almost totally digested in human plasma: ≤ 60 min
[20]; 4 µM peptide
  Haemolysis (%): 0%
[20]; 8 µM peptide
  Haemolysis (%): 0%
[20]; 16 µM peptide
  Haemolysis (%): 0%
[20]; 32 µM peptide
  Haemolysis (%): 0%
[20]; 125 µM peptide
  Haemolysis (%): 0%
[20]; 250 µM peptide
  Haemolysis (%): 0%
[20]; 500 µM peptide
  Haemolysis (%): 25.14%
[20]
  Haemoglobin release at the concentrations active against bacteria, yeasts and fungi: No haemoglobin release was observed
